Data reported in patent publication US12616739B2, “GLP-1 prodrugs and uses thereof” (Novo Nordisk A/S, priority 2020, dated 2026).

Assay: Prodrug to drug conversion half-life in vitro, PBS pH 7.4, 37° C.
Assay type: physicochemical
Settings: buffer
Procedure: General Methods for Measuring Conversion Half-Life
The assay was performed to investigate the conversion half-life of prodrug to drug of the prodrugs of the invention.
Peptide stock solutions were prepared by dissolving freeze-dried powder in PBS buffer to a target of 200 μM. PBS-buffer was Dulbecco's Phosphate Buffered Saline without CaCl2 and MgCl2, gibco 14190-094 adjusted to pH=7.4. The pH of the peptide stock solutions was adjusted to 7.4 with 0.02 M HCl or 0.02M NaOH. Samples were filled in Agilent HPLC vials with fixed insert. Vials were capped to prevent evaporation. The HPLC vials were incubated at 37° C. and samples were withdrawn at different time points over a period of 2 weeks, flash frozen at −80° C., and stored at −20° C. until analysis.
Sample analysis was carried out using UPLC coupled to UV detection at 215 nm and MS (UPLC-UV-MS). One μl of sample was injected on to a Waters Acquity UPLC with a flow-through-needle injection system and on to a Waters Acquity CSH C18 column (1*150 mm), with a particle size of 1.7 μm and held at 55° C. A flow-rate of 100 μl/min was delivered with a Binary solvent manager pump having 0.1% formic acid in water as solvent A and 0.1% formic acid in acetonitrile as solvent B. Gradient elution was carried out using 15-32% B from 0 to 4 min followed by 32 to 48% B from 4 to 54 min. […]

| SMILES | half-life |
| --- | --- |
| CC[C@H](C)[C@H](NC(=O)[C@H](Cc1ccccc1)NC(=O)[C@H](CCC(=O)O)NC(=O)[C@H](CCCCNC(=O)COCCOCCNC(=O)COCCOCCNC(=O)CC[C@H](NC(=O)CCCCCCCCCCCCCCCCC(=O)O)C(=O)O)NC(=O)[C@H](C)NC(=O)[C@H](C)NC(=O)[C@H](CCC(N)=O)NC(=O)CNC(=O)[C@H](CCC(=O)O)NC(=O)[C@H](CC(C)C)NC(=O)[C@H](Cc1ccc(O)cc1)NC(=O)[C@H](CO)NC(=O)[C@H](CO)NC(=O)[C@@H](NC(=O)[C@H](CC(=O)O)NC(=O)[C@H](CO)NC(=O)[C@@H](NC(=O)[C@H](Cc1ccccc1)NC(=O)[C@@H](NC(=O)CNC(=O)[C@H](CCC(=O)O)NC(=O)C(C)(C)NC(=O)[C@H](Cc1c[nH]cn1)NC(=O)CN(CCNC(=O)CC[C@H](NC(=O)CCCCCCCCCOc1ccc(C(=O)O)cc1)C(=O)O)C(=O)CN)[C@@H](C)O)[C@@H](C)O)C(C)C)C(=O)N[C@@H](C)C(=O)N[C@@H](Cc1c[nH]c2ccccc12)C(=O)N[C@@H](CC(C)C)C(=O)N[C@H](C(=O)N[C@@H](CCCNC(=N)N)C(=O)NCC(=O)N[C@@H](CCCNC(=N)N)C(=O)NCC(=O)O)C(C)C [Chem. 18, Gly-N^α-2-[[(4S)-4-carboxy-4-[10-(4-carboxyphenoxy)decanoylamino]butanoyl]amino]ethyl-Gly-semaglutide] | 115 h |
| CC[C@H](C)[C@H](NC(=O)[C@H](Cc1ccccc1)NC(=O)[C@H](CCC(=O)O)NC(=O)[C@H](CCCCNC(=O)COCCOCCNC(=O)COCCOCCNC(=O)CC[C@H](NC(=O)CCCCCCCCCCCCCCCCC(=O)O)C(=O)O)NC(=O)[C@H](C)NC(=O)[C@H](C)NC(=O)[C@H](CCC(N)=O)NC(=O)CNC(=O)[C@H](CCC(=O)O)NC(=O)[C@H](CC(C)C)NC(=O)[C@H](Cc1ccc(O)cc1)NC(=O)[C@H](CO)NC(=O)[C@H](CO)NC(=O)[C@@H](NC(=O)[C@H](CC(=O)O)NC(=O)[C@H](CO)NC(=O)[C@@H](NC(=O)[C@H](Cc1ccccc1)NC(=O)[C@@H](NC(=O)CNC(=O)[C@H](CCC(=O)O)NC(=O)C(C)(C)NC(=O)[C@H](Cc1c[nH]cn1)NC(=O)CN(CCNC(=O)CC[C@H](NC(=O)CCCCCCCCCCOc1ccc(C(=O)O)cc1)C(=O)O)C(=O)CN)[C@@H](C)O)[C@@H](C)O)C(C)C)C(=O)N[C@@H](C)C(=O)N[C@@H](Cc1c[nH]c2ccccc12)C(=O)N[C@@H](CC(C)C)C(=O)N[C@H](C(=O)N[C@@H](CCCNC(=N)N)C(=O)NCC(=O)N[C@@H](CCCNC(=N)N)C(=O)NCC(=O)O)C(C)C [Chem. 26, Gly-N^α-2-[[(4S)-4-carboxy-4-[11-(4-carboxyphenoxy)undecanoylamino]butanoyl]amino]ethyl-Gly-semaglutide] | 118 h |
